This passage reports IC50 results from patent publication US6903126B2, “1-Aryl-2-N-, S- or O-substituted benzimidazole derivatives, their use for the production of pharmaceutical agents as well as pharmaceutical preparations that contain these derivatives” (Schering AG, priority 2001, dated 2005).

The subject of the assay is primary rat microglia. The assay is described as follows: Inhibition of microglia activation (Aβ-peptide stimulation, MTS reduction). It is filed as cell-based. Conditions: Aβ-peptide-activated primary rat microglia, compound added day 5, MTS reduction on day 7, relative to DMSO control. As for the experimental part: For in vitro production of Aβ-activated microglia, primary rat microglia with synthetic Aβ-peptide are incubated:
For simulation of Aβ deposits, synthetic Aβ peptide is dried on 96-hole tissue culture plates. A peptide stock solution is diluted by 2 mg/ml of H2O 1:50 in H2O. To coat the 96-hole plates, 30 μl of this dilute peptide solution/hole is used, and it is dried overnight at room temperature.
Primary rat microglia are harvested by mixed glia cultures, which were obtained from P3 rat brains. In the production of mixed glia cultures, the brains are taken from 3-day-old rats, and meninges are removed. The isolation of cells is achieved by trypsinization (0.25% trypsin solution, 15 minutes, 37° C.)). After undigested tissue fragments are separated with the aid of a 40 μm nylon mesh, the isolated cells are centrifuged off (800 rpm/10 minutes). The cell pellet is resuspended in the culture medium and moved into 100 ml tissue culture flasks (1 brain/tissue culture flask). […]
To quantify the microglia reactivity, the metabolic activity is measured on cultivation day 7 via the reduction of MTS (3-(4,5-dimethylthiazol-2-yl)-5-(3-carboxymethoxyphenyl)-2-(sulfophenyl)-2H-tetrazolium), Owen's reagent, Baltrop, J. A. et al. Bioorg. & Med. Chem. Lett., 1, 6111 (1991)). […]
For orientation: Tetrazolium dyes change colour on reduction, which living cells bring about.

One may read the IC50 as the concentration at which inhibition is half-maximal. A high value points to weaker potency. `COC(=O)CCCCCOc1ccc2nc(S(=O)(=O)Cc3ccccc3)n(-c3ccc(C)cc3)c2c1` [Example 9, 6-[[1-(4-Methylphenyl)-2-(phenylmethanesulfonyl)-1H-benzimidazol-6-yl]oxy]hexanoic acid methyl ester] yielded a 50% inhibitory concentration (IC50) of 460 nM.
For the compound `COC(=O)CCCCCOc1ccc2nc(N3CCOCC3)n(-c3ccccc3)c2c1` [Example 15, 6-[[2-(Morpholin-4-yl)-1-phenyl-1H-benzimidazol-6-yl]oxy]hexanoic acid methyl ester], the half-maximal inhibitory concentration (IC50) was 870 nM.
